Assay results reported in patent US6921821B2, “Antagonists of melanin concentrating hormone receptor” (Abbott Laboratories, priority 2002, dated 2005).
Structures can show the parent of a compound that is named as a salt.

Molecular target: T1, murine MCHR (Mus musculus, UniProt Q8JZL2)
T1 construct: expressed in transfected cells; host or cells: HEK293
Experiment: Assay for release of intracellular calcium (FLIPR, Fluo-4), inhibition of MCH-induced Ca++ flux
Type: cell-based
Conditions: test compound at a dose of 10 μM, HEK293 cells expressing the murine MCHR, read-out: inhibition of MCH (MCH induced Ca++ flux / fluorescence)
Method in brief: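 HEK293 cells expressing murine MCHR were loaded with Fluo-4AM (2.5 μM) and given compound (40 μM stock in 4% DMSO), with 3 min monitoring for agonism. They were then challenged with mouse MCH (12 nM as added) and FLIPR fluorescence followed 3 min more. % inhibition of MCH-induced Ca++ flux was calculated against baseline and no-compound signals.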

T1 sequence (Q8JZL2 whole entry): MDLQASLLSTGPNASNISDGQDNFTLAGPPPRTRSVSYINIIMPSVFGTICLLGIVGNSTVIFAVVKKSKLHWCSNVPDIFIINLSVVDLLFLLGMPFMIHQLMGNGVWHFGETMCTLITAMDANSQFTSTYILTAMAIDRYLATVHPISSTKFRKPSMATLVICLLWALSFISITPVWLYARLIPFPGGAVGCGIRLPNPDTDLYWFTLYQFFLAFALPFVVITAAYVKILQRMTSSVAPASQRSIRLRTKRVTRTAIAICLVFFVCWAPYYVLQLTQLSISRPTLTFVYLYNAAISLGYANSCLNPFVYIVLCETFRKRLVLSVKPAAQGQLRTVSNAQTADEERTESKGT

Inhibition at 10 µM, ≥ 50%:
C=Cc1ccc2oc(=O)cc(NC3CCN(Cc4ccc5c(c4)OCCO5)CC3)c2c1 [II-57, 4-{1-(2,3-Dihydrobenzo{1,4}dioxin-6-ylmethyl)-piperidin-4-ylamino}-6-vinyl-chromen-2-one]
COc1ccc2oc(=O)cc(NC3CCN(Cc4ccc(Cl)c(F)c4)CC3)c2c1 [II-58, 4-[1-(4-Chloro-3-fluoro-benzyl)-piperidin-4-ylamino]-6-methoxy-chromen-2-one trifluoroacetate]
O=c1cc(NC2CCN(Cc3ccc(Cl)cc3)CC2)c2cc(Cl)ccc2o1 [II-59, 6-Chloro-4-{1-(4-chloro-benzyl)-piperidin-4-ylamino}-chromen-2-one]
CC(c1ccc2c(c1)OCO2)N1CCC(Nc2cc(=O)oc3ccc(Cl)cc23)CC1 (stereo not shown) [II-60, 4-[1-(1-Benzo[1,3]dioxol-5-yl-ethyl)-piperidin-4-ylamino]-6-chloro-chromen-2-one]
Cc1cc2cc(CN3CCC(Nc4cc(=O)oc5ccc(Cl)cc45)CC3)ccc2o1 [II-61, 6-Chloro-4-[1-(2-methyl-benzofuran-5-ylmethyl)-piperidin-4-ylamino]-chromen-2-one]
CCc1ccc2oc(=O)cc(NC3CCN(Cc4ccc5c(c4)OCO5)CC3)c2c1 [II-63, 4-(1-Benzo{1,3}dioxol-5-ylmethyl-piperidin-4-ylamino)-6-ethyl-chromen-2-one]
COc1ccc2oc(=O)cc(NC3CCN(Cc4ccc5c(c4)OCCO5)CC3)c2c1 [II-64, 4-[1-(2,3-Dihydro-benzo[1,4]dioxin-6-ylmethyl)-piperidin-4-ylamino]-6-methoxy-chromen-2-one trifluoroacetate]
COc1ccc2oc(=O)cc(NC3CCN(Cc4ccc(Br)cc4)CC3)c2c1 [II-65, 4-[1-(4-Bromo-benzyl)-piperidin-4-ylamino]-6-methoxy-chromen-2-one trifluoroacetate]
COc1ccc2oc(=O)cc(NC3CCN(Cc4cccc5ccccc45)CC3)c2c1 [II-66, 6-Methoxy-4-(1-naphthalen-1-ylmethyl-piperidin-4-ylamino)-chromen-2-one trifluoroacetate]
O=C(NCCN1CCCCC1)c1ccc(CN2CCC(Nc3cc(=O)oc4ccc(Cl)cc34)CC2)cc1 [II-67, 4-[4-(6-Chloro-2-oxo-2H-chromen-4-ylamino)-piperidin-1-ylmethyl]-N-(2-piperidin-1-yl-ethyl)-benzamide; Double TFA Salt]
COc1ccc2oc(=O)cc(NC3CCN(Cc4ccc5c(c4)OC(F)(F)O5)CC3)c2c1 [II-68, 4-[1-(2,2-Difluoro-benzo[1,3]dioxol-5-ylmethyl)-piperidin-4-ylamino]-6-methoxy-chromen-2-one trifluoroacetate]
COc1ccc2oc(=O)cc(NC3CCN(Cc4ccc(C(=O)NCCN5CCCCC5)cc4)CC3)c2c1 [II-69, 4-[4-(6-Methoxy-2-oxo-2H-chromen-4-ylamino)-piperidin-1-ylmethyl]-N-(2-piperidin-1-yl-ethyl)-benzamide; Double TFA Salt]
COc1ccc2oc(=O)cc(NC3CCN(Cc4ccc(OC)c(F)c4)CC3)c2c1 [II-70, 4-[1-(3-Fluoro-4-methoxy-benzyl)-piperidin-4-ylamino]-6-methoxy-chromen-2-one trifluoroacetate]
Cc1ccc(CN2CCC(Nc3cc(=O)oc4ccc(Cl)cc34)CC2)cc1C [II-71, 6-Chloro-4-[1-(3,4-dimethyl-benzyl)-piperidin-4-ylamino]-chromen-2-one]
O=c1cc(NC2CCN(Cc3ccc4cnccc4c3)CC2)c2cc(Cl)ccc2o1 [II-73, 6-Chloro-4-(1-isoquinolin-6-ylmethyl-piperidin-4-ylamino)-chromen-2-one]
CC(c1ccc(Cl)cc1)N1CCC(Nc2cc(=O)oc3ccc(Cl)cc23)CC1 (stereo not shown) [II-74, 6-Chloro-4-{1-[1-(4-chloro-phenyl)-ethyl]-piperidin-4-ylamino}-chromen-2-one]
N#Cc1ccc2oc(=O)cc(NC3CCN(Cc4ccc5c(c4)OCO5)CC3)c2c1 [II-75, 4-(1-Benzo[1,3]dioxol-5-ylmethyl-piperidin-4-ylamino)-2-oxo-2H-chromene-6-carbonitrile]
COc1cccc(CN2CCC(Nc3cc(=O)oc4ccc(OC)cc34)CC2)c1 [II-76, 6-Methoxy-4-[1-(3-methoxy-benzyl)-piperidin-4-ylamino]-chromen-2-one trifluoroacetate]
O=c1cc(NC2CCN(Cc3ccc4c(c3)CCO4)CC2)c2cc(Cl)ccc2o1 [II-78, 6-Chloro-4-[1-(2,3-dihydro-benzofuran-5-ylmethyl)-piperidin-4-ylamino]-chromen-2-one]
COc1ccc2oc(=O)cc(NC3CCN(Cc4cccc(F)c4)CC3)c2c1 [II-79, 4-[1-(3-Fluoro-benzyl)-piperidin-4-ylamino]-6-methoxy-chromen-2-one trifluoroacetate]
CCOc1ccc(CN2CCC(Nc3cc(=O)oc4ccc(OC)cc34)CC2)cc1 [II-80, 4-[1-(4-Ethoxy-benzyl)-piperidin-4-ylamino]-6-methoxy-chromen-2-one trifluoroacetate]
O=C1CCCN1c1cc(Cl)cc2c(NC3CCN(Cc4ccc5c(c4)OCO5)CC3)cc(=O)oc12 [II-81]
O=c1cc(NC2CCN(Cc3ccc4c(c3)OCO4)CC2)c2cc(C(F)(F)F)ccc2o1 [II-82, 4-(1-Benzo[1,3]dioxol-5-ylmethyl-piperidin-4-ylamino)-6-trifluoromethyl-chromen-2-one]
COc1ccc2oc(=O)cc(NC3CCN(Cc4ccc(C(=O)NCCc5ccccn5)cc4)CC3)c2c1 [II-83, 4-[4-(6-Methoxy-2-oxo-2H-chromen-4-ylamino)-piperidin-1-ylmethyl]-N-(2-pyridin-2-yl-ethyl)-benzamide; Double TFA Salt]
COc1ccc2oc(=O)cc(NC3CCN(Cc4cc5ccccc5n4C)CC3)c2c1 [II-84, 6-Methoxy-4-[1-(1-methyl-1H-indol-2-ylmethyl)-piperidin-4-ylamino]-chromen-2-one, trifluoroacetate]
O=c1cc(NC2CCN(Cc3ccc4ccccc4c3)CC2)c2cc(F)cc(F)c2o1 [II-85, 6,8-Difluoro-4-(1-naphthalen-2-ylmethyl-piperidin-4-ylamino)-chromen-2-one]
COc1ccc2oc(=O)cc(NC3CCN(Cc4ccc(C(=O)NCCN5CCCC5)cc4)CC3)c2c1 [II-86, 4-[4-(6-Methoxy-2-oxo-2H-chromen-4-ylamino)-piperidin-1-ylmethyl]-N-(2-pyrrolidin-1-yl-ethyl)-benzamide; Double TFA Salt]
C=Cc1ccc2oc(=O)cc(NC3CCN(Cc4ccc5c(c4)CCO5)CC3)c2c1 [II-87, 4-[1-(2,3-Dihydro-benzofuran-5-ylmethyl)-piperidin-4-ylamino]-6-vinyl-chromen-2-one]
COc1ccc2oc(=O)cc(NC3CCN(Cc4ccc(O)c(F)c4)CC3)c2c1 [II-88, 4-[1-(3-Fluoro-4-hydroxy-benzyl)-piperidin-4-ylamino]-6-methoxy-chromen-2-one hydrochloride]
Cc1ccc2oc(=O)c(F)c(NC3CCN(Cc4ccc5c(c4)OCO5)CC3)c2c1 [II-89, 4-(1-Benzo{1,3}dioxol-5-ylmethyl-piperidin-4-ylamino)-3-fluoro-6-methylchromene-2-one]
COc1ccc2oc(=O)c(Cl)c(NC3CCN(Cc4ccc5c(c4)OCO5)CC3)c2c1 [II-90, 4-(1-Benzo[1,3]dioxol-5-ylmethyl-piperidin-4-ylamino)-3-chloro-6-methoxy-chromen-2-one]
COc1ccc2oc(=O)cc(NC3CCN(Cc4ccc(OCCCN(C)C)cc4)CC3)c2c1 [II-91]
COc1ccc2oc(=O)cc(NC3CCN(Cc4cccc(C)c4)CC3)c2c1 [II-92, 6-Methoxy-4-[1-(3-methyl-benzyl)-piperidin-4-ylamino]-chromen-2-one trifluoroacetate]
O=c1cc(NC2CCN(Cc3cc(Cl)c4occc4c3)CC2)c2cc(Cl)ccc2o1 [II-93, 6-Chloro-4-[1-(7-chloro-benzofuran-5-ylmethyl)-piperidin-4-ylamino]-chromen-2-one]
COc1ccc2oc(=O)cc(NC3CCN(Cc4ccc(C(=O)N5CCN(Cc6ccccc6)CC5)cc4)CC3)c2c1 [II-94, 4-{1-[4-(4-Benzyl-piperazine-1-carbonyl)-benzyl]-piperidin-4-ylamino}-6-methoxy-chromen-2-one; Double TFA Salt]
O=c1cc(NC2CCN(Cc3ccc4ocnc4c3)CC2)c2cc(Cl)ccc2o1 [II-95, 4-{1-Benzooxazol-5-ylmethyl-piperidin-4-ylamino)-6-chloro-chromen-2-one]
O=c1cc(NC2CCN(Cc3ccc4c(c3)OCO4)CC2)c2cc(OC(F)(F)F)ccc2o1 [II-96, 4-(1-Benzo[1,3]dioxol-5ylmethyl-piperidin-4-ylamino)-6-trifluoromethoxy-chromen-2-one]
